Consider one molecule from patent US7683055B2, “Lanthionine-related compounds for the treatment of inflammatory diseases” (Oklahoma Medical Research Foundation, priority 2006, dated 2010).

Data set [1] deals with Htt+ astroglia. Kind of data set: LPS-stimulated NO2- production in Htt+ astroglia. The note with it: LPS serotype 0127:B8. In kind it is cell-based, mouse. As for the experimental part:
(§1) Primary astrocytes were cultured from neonatal R6/2 transgenic mouse pups (“Htt+”) which are the standard murine model for Huntington's disease (animals commercially obtained from Jackson Labs) or nontransgenic littermates. For RAW cell studies, RAW264.7 macrophages were obtained commercially from American Type Culture Collection. RAW 264.7 macrophages were grown in DMEM plus 10% FBS and 1% Pen/Strep. Cells were maintained in culture according to published methods. Cells were treated with +/−[…] bacterial lipopolysaccharide serotype 0127:B8 (Sigma Chemical)+/−various concentrations of (R)-LKE1 for 24-48 h. (R)-LKE1 was added 30 minutes prior to LPS challenge. Nitrite was measured in the cell culture medium using the Griess diazotization assay. Cells were lysed and Western blots performed for protein expression or in other experiments for ribonuclease protection assays.

The test system of data set [2] is NSC-34 cells. Briefly: NSC-34 viability in cytokine-conditioned EOC-20 microglial medium (tetrazolium reduction). In kind it is cell-based, mouse. As for the experimental part:
In the second cytotoxicity paradigm, the inventor has also shown that the compounds and methods of this invention diminish the toxicity of microglia-conditioned medium toward NSC-34 cells. NSC-34 cells were treated with conditioned medium taken from EOC-20 cells that had been stimulated for 24 h with 50 U/mL IFNγ plus […] TNFα. This cytokine-conditioned EOC-20 medium is toxic to NSC-34 cells, whereas the same cytokine mixture added directly to NSC-34 cells is not toxic (data not shown). Medium from unstimulated EOC-20 cells is likewise nontoxic (data not shown). The toxic factor in the cytokine-stimulated EOC-20 cell conditioned medium was not identified. […] The concentration of (R)-LKE1 necessary to achieve half-maximal protective efficacy in this case was less than 1 μM (FIG. 3).
(R)-LKE1 protects NSC-34 motoneuron hybridoma cells from microglial-derived neurotoxic products (FIG. 3). EOC-20 microglia were stimulated with 50 U/mL IFNγ plus 20ng/mL TNFα for 24 hours, and cytokine-conditioned medium (CM) was collected. NSC-34 cells (2 days post-passage) were treated with the indicated concentration of (R)-LKE1 for 2.5 hours after which 50% of the medium was replaced with CM. […] After 48 hours, viability of NSC-34 cultures was assessed by tetrazolium reduction assay using a commercially available kit (Promega Aqueous OneStep®).

For data set [3], the system named is C6 glioma cells. Briefly: C6 glioma cells implanted in rat neocortex. In kind it is in vivo, Sprague-Dawley rats. The note with it: 100 mg/day, 7 days/week from implantation. As for the experimental part: FIG. 16. […] 100,000 C6 glioma cells were implanted in the neocortex of adult male Sprague-Dawley rats. The test group was administered (R)-LKE1 in saline 100 mg/day at each of 7 days/week starting the day of implantation.

For data set [4], the system named is mice treated with E. coli LPS 0127:B8. Kind of data set: LPS sepsis mouse model, viability. The format is in vivo. The note with it: for Dead/alive: 40 mg/kg LPS + 100 mg/kg i.p. daily. As for the experimental part: Six mice were treated with 40 mg/kg E. coli LPS 0127:B8 and co-treated with 100 mg/kg (R)-LKE1 i.p., daily. Viability was compared to a control group, receiving only LPS.

For data set [5], the system named is EOC-20 microglial cells. Kind of data set: LPS-stimulated nitrite production in EOC-20 microglia. The format is cell-based, mouse. On the procedure: In some embodiments, the compounds of the invention function is a cell-type specific, stimulus-specific, or condition-specific fashion. […] In contrast, when EOC-20 cells or RAW264.7 macrophages were stimulated with bacterial lipopolysaccharide (LPS; E. coli serotype 0127:B8) for 24-48 h and nitrite and cell viability were assessed. LKE inhibited cytokine-induced nitrite accumulation with a similar efficacy in both cell types (see FIGS. 9A & 9B).
Mouse EOC-20 microglia (American Tissue Type Collection, Gaithersville Md. USA) (Hensley et al., 2003; Walker et al., 1995) were grown in DMEM containing 20% L929 fibroblast-supplemented medium. Nitrite production by cytokine stimulated microglia was measured in cell culture medium using the Griess diazotization reaction as previously reported (Hensley et al., 2003; West et al., 2004).

Data set [6] deals with EOC-20 microglial cells. Briefly: PGE2 production in TNFα+IFNγ-stimulated EOC-20 microglial cells. In kind it is cell-based, mouse. The following applies: stimulated by TNFα+IFNγ.
Data set [7] has as its system SHSY5Y dopaminergic neuroblastoma cells. Briefly: rotenone toxicity in SHSY5Y cells. The format is cell-based. The following applies: 30 min pretreatment. As for the experimental part:
FIG. 15. (R)-LKE1 protects SHSY5Y dopaminergic neuroblastoma cells against rotenone toxicity. In this experiment SHSY5Y cultures were treated with (R)-LKE1 for 30 min. prior to addition of rotenone, then assayed for viability at various later time points. The percent change in 24 hour cell viability was measured in the presence and absence of (R)-LKE1 at difference rotenone concentrations. “LKE” refers to (R)-LKE1.
For example, the methods and compounds of present invention are expected to by useful for treating Parkinson's disease in an individual. […] In this experiment SHSY5Y cultures were treated with (R)-LKE1 for 30 min. prior to addition of rotenone, then assayed for viability at various later time points.

Data set [8] deals with G93A-SOD1 mice. Kind of data set: G93A-SOD1 mouse model of ALS (rotarod, weight). The following applies: 100 mg/kg i.p. 5 days/week from day 90. The format is in vivo. The source says: Transgenic mice. Mice expressing high copy numbers of human mutant G93A-SOD1 (SOD1^G93A mice) were obtained from Jackson Laboratories [Bar Harbor Me. USA; strain designation B6SJL-TgN-(SOD1 G93A)-1-Gur] (Hensley et al., 2002; Hensley et al., 2003; West et al., 2004; Hensley et al., 2006). Transgenic mice were maintained in the hemizygous state by mating SOD1^G93A males with B6SJL-TGN females. Animals were housed in the Oklahoma Medical Research Foundation Laboratory Animal Resource Center.
Mice were trained to a rotarod task at 80 d of age. In this task mice were placed on a horizontal rod that rotates with acceleration at 10 rpm from rest (Hensley et al., 2002; Hensley et al., 2003; West et al., 2004). The time was recorded at which each mouse fell from the rotarod and the test was repeated four times on each trial date. The closest three performance times were averaged for each mouse on each day. For experimental drug treatments mice were injected with LKE at 100 mg/kg/day i.p. Monday-Friday beginning at 90 d. Control animals received saline vehicle. Rotarod performance and weights were recorded at 10 day intervals until death. Animals were euthanized when unable to right themselves within 10 seconds of being placed on their side, or when unable to perform the rotarod task.
Background: The rotarod test checks motor coordination on a turning rod.

For data set [9], the system named is RAW 264.7 macrophages. Kind of data set: LPS-stimulated nitrite production in RAW 264.7 macrophages. The format is cell-based. The note with it: 24-48 h. On the procedure:
as §1

On to `CCOC(=O)[C@@H]1CSCC(C(=O)O)=N1` [(R)-LKE1], for which, in data set [1], the “NO2- produced in response to LPS” value was “reduce the amount of NO2^− produced”. Further, the EC50 in [2] (Mus musculus, NSC-34, cytokine-conditioned EOC-20 medium, read-out: concentration necessary to achieve half-maximal protective efficacy) was less than 1000 nM. Moreover, in [2] (co-treatment with conditioned medium), the “mitigation of conditioned-medium toxicity” value was “largely, but not completely mitigated”. Also, the tumor cell proliferation entry in data set [3] is “inhibits tumor cell proliferation”. The Dead/alive in data set [4] (0 h) is 0/6; in [4] (18 h), 2/4; in data set [4] (36 h) it was 3/3; in data set [4] (48 h) it was 4/2; in data set [4] (72 h), 4/2. For the same molecule, in [4] (co-treated), the “chance of surviving the LPS model conditions” value was “higher chance of surviving”. Further, the “cytotoxicity (cell viability)” value in [5] (EOC-20 cells or RAW264.7 macrophages, LPS 24-48 h) is listed as “No cytotoxicity was observed”. The “inhibition of LPS-stimulated nitric oxide production” value in data set [5] (EOC-20 microglial cells, LPS) was “inhibited LPS stimulated nitric oxide production”; in data set [9], “inhibited LPS stimulated nitric oxide production”. Besides, the “suppression of PGE2 production” value in data set [6] is reported as “does not to suppress prostaglandin E2 (PGE2) production”. Also, the “protection from rotenone toxicity” value in data set [7] is “protecting SHSY5Y cells from rotenone toxicity”. In data set [8], the rotarod performance entry is listed as “improved”. For the same molecule, the weight loss entry in [8] is listed as “inhibited weight loss”.
